From the NIST ThermoML archive (doi:10.1016/j.jct.2010.01.016)

Key:
[1] = excess molar enthalpy (molar enthalpy of mixing); xn = mol fraction of the nth substance listed; conditions: 303.15 K, 101 kPa, Liquid, Calvet calorimetry
[2] = Liquid; for vapor or sublimation pressure: Closed cell (Static) method; for mass density: 298.15 K, 101.33 kPa, Vibrating tube method

CCN(CC)CCCN [N,N-diethylpropane-1,3-diamine] + C1CCCCC1
[1]
Conditions | excess molar enthalpy [kcal/mol]
x1 = 0.1022 | 0.141
x1 = 0.2027 | 0.209
x1 = 0.3028 | 0.245
x1 = 0.3197 | 0.247
x1 = 0.3519 | 0.251
x1 = 0.3953 | 0.255
x1 = 0.407 | 0.257
x1 = 0.4449 | 0.257
x1 = 0.4943 | 0.254
x1 = 0.5061 | 0.255
x1 = 0.5307 | 0.248
x1 = 0.5351 | 0.248
x1 = 0.5595 | 0.243
x1 = 0.5741 | 0.239
x1 = 0.6073 | 0.228
x1 = 0.6523 | 0.21
x1 = 0.7017 | 0.187
x1 = 0.7997 | 0.131
x1 = 0.8696 | 0.0837

CCN(CC)CCCN [N,N-diethylpropane-1,3-diamine]
[2]
Conditions | vapor or sublimation pressure [kPa]
273.15 K | 0.031
283.15 K | 0.073
293.15 K | 0.155
303.15 K | 0.31
313.15 K | 0.586
323.15 K | 1.053
333.15 K | 1.809
343.15 K | 2.987
353.15 K | 4.759
363.15 K | 7.346

Conditions | mass density [kg/m3]
[2] | 821.363

C1CCCCC1 [cyclohexane]
[2]
Conditions | vapor or sublimation pressure [kPa]
273.15 K | 3.726
283.15 K | 6.352
293.15 K | 10.36
303.15 K | 16.26
313.15 K | 24.65
323.15 K | 36.24
333.15 K | 51.85
343.15 K | 72.4
353.15 K | 98.87
363.15 K | 132.35

Conditions | mass density [kg/m3]
[2] | 774.1
